The numbers were not newly measured in patent publication US11766396B2, “Kit and method for dyeing keratinous material by means of aminosilicone and a chromophoric compound” (Henkel AG & Co. KGaA, priority 2019, dated 2023), which cites them from elsewhere.

For data set [1] the following is noted: 25° C.
The conditions of data set [2]: 5% solution in water.

Each structure is given as a SMILES string.

Turning to `O=S(=O)([O-])c1ccc(N=Nc2c(O)ccc3ccccc23)cc1.[Na+]` [Acid Orange 7, sodium salt of 4-[(2-hydroxy-1-naphthyl)azo]benzene sulphonate], the solubility in water entry in data set [1] was “more than 7 g/L”. As for `Nc1cc(S(=O)(=O)[O-])cc2cc(S(=O)(=O)[O-])c(N=Nc3ccccc3)c(O)c12.[Na+].[Na+]` [Acid Red 33, diantrium salt of 5-amino-4-hydroxy-3-(phenylazo)-naphthalene-2,7-disulphonate], the solubility in water in data set [1] is 2500 µg/mL. Take `O=C([O-])c1c(Cl)c(Cl)c(Cl)c(Cl)c1-c1c2c(Br)cc(=O)c(Br)c-2oc2c(Br)c(O)cc(Br)c12.O=C([O-])c1c(Cl)c(Cl)c(Cl)c(Cl)c1-c1c2c(Br)cc(=O)c(Br)c-2oc2c(Br)c(O)cc(Br)c12.[Na+].[Na+]` [Acid Red 92, disodium salt of 3,4,5,6-tetrachloro-2-(1,4,5,8-tetrabromo-6-hydroxy-3-oxoxanthen-9-yl)benzoic acid]: in data set [1], the solubility in water result is listed as “greater than 10 g/L”.

In the case of `O=C([O-])C1=NN(c2ccc(S(=O)(=O)[O-])cc2)C(=O)C1N=Nc1ccc(S(=O)(=O)[O-])cc1.[Na+].[Na+].[Na+]` (centres unmarked) [Acid Yellow 23, trisodium salt of 4,5-dihydro-5-oxo-1-(4-sulfophenyl)-4-((4-sulfophenyl)azo)-1H-pyrazole-3-carboxylic acid], the “solubility in water” value in data set [1] is recorded as “highly soluble”. With `O=P([O-])(O)O.[K+]` [Potassium dihydrogen phosphate], the “pH value of solution in water” value in data set [2] is given as 4.4.
